Measurements: paper PMC6478823, “A suite of phenotypic assays to ensure pipeline diversity when prioritizing drug-like Cryptosporidium growth inhibitors” (Nature Communications, 2019)

Experiments:
cryptosporidiosis [1] = system: cryptosporidiosis; parameters: method as in PMID 17253532; conditions: cited from earlier work
cryptosporidiosis [2] = system: cryptosporidiosis; parameters: method as in PMID 19954529; conditions: versus approximately one-quarter of untreated children; cited from earlier work
C. parvum = test: Time course infection experiment (PV numbers versus time)
Method: For quantification of parasitophorous vacuoles over time, HCT-8 cells were grown to greater than 90% confluence in 384-well plates and infected with 11,000 oocysts after triggering excystation.

Cryptosporidium [3] = system: Cryptosporidium; parameters: method as in Gorla, et al. 2014. AAC.; conditions: ref Gorla, et al. 2014. AAC.; cited from earlier work
Cryptosporidium [4] = system: Cryptosporidium; parameters: method as in Lee, et al. 2018. AAC; conditions: ref Lee, et al. 2018. AAC; cited from earlier work

CC(=O)Oc1ccccc1C(=O)Nc1ncc([N+](=O)[O-])s1 [Nitazoxanide]
efficacy in AIDS patients (cryptosporidiosis [1]): equivalent to a placebo | improvement after 1 week of treatment in young children (cryptosporidiosis [2]): just over half of children studied

Cc1cccc(-n2ncc3c(O)nc(-n4nc(C)cc4NC(=O)c4cc5ccccc5o4)nc32)c1 [C-1]
Parasites Detected, Average (C. parvum; C1 at 2*EC90, 6 h post-infection): 1992 | Parasites Detected, Average (C. parvum; C1 at 2*EC90, 9.5 h post-infection): 2503 | Parasites Detected, Average (C. parvum; C1 at 2*EC90, 12 h post-infection): 1773 | Parasites Detected, Average (C. parvum; C1 at 2*EC90, 13.5 h post-infection): 1847 | Parasites Detected, Average (C. parvum; C1 at 2*EC90, 15 h post-infection): 879 | Parasites Detected, Average (C. parvum; C1 at 2*EC90, 18 h post-infection): 1045 | Parasites Detected, Average (C. parvum; C1 at 2*EC90, 19.5 h post-infection): 1400 | Parasites Detected, Average (C. parvum; C1 at 2*EC90, 22.5 h post-infection): 945 | Parasites Detected, Average (C. parvum; C1 at EC90, 6 h post-infection): 2336 | Parasites Detected, Average (C. parvum; C1 at EC90, 9.5 h post-infection): 2363 | Parasites Detected, Average (C. parvum; C1 at EC90, 12 h post-infection): 2052 | Parasites Detected, Average (C. parvum; C1 at EC90, 13.5 h post-infection): 2149 | Parasites Detected, Average (C. parvum; C1 at EC90, 15 h post-infection): 1056 | Parasites Detected, Average (C. parvum; C1 at EC90, 18 h post-infection): 1258 | Parasites Detected, Average (C. parvum; C1 at EC90, 19.5 h post-infection): 2054 | Parasites Detected, Average (C. parvum; C1 at EC90, 22.5 h post-infection): 2003

CC(=NOCCN)c1cccc(C(C)(C)NC(=O)Nc2ccc(Cl)c(C(F)(F)F)c2)c1 [P257]
efficacy in the acute IL-12 knockout mouse model of cryptosporidiosis (Cryptosporidium [3]): efficacious

CCOc1ccc2cc(-c3nn(CC4CCN(C)CC4)c4ncnc(N)c34)ccc2n1 [BKI-1369]
anticryptosporidial efficacy in gnotobiotic piglet model (Cryptosporidium [4]): previously demonstrated anticryptosporidial efficacy
